Values of other authors, collected in US20060078583A1, “Device for delivering an anti-microbial composition” (priority 2004, published 2006).

Assays:
[1] = tested on: rhinovirus; settings: on skin
[2] = tested on: rhinoviral infections (colds); settings: subjects who used iodine products

## II [iodine]
[1]
  residual anti-rhinoviral activity: provides residual anti-rhinoviral activity on skin
[2]
  number of colds versus placebo users: significantly fewer colds than placebo users
